From patent publication US4450269A, “Mono-5-substituted-3-chloro-4H-1,2,6-thiadiazin-4-one antifungal agents” (FMC Corporation, priority 1980, dated 1984)

Assays:
Assay in all cases: Spore germination test
Assay type in all cases: cell-based
Alternaria solani = conditions: AS, 48 hours
Summary of the method: (§1)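 Compound was delivered in acetone into water agar at final 40, 10, 2.5 and 1 ppm. Alternaria solani and Botrytis cinerea spores were applied as sterile-water suspensions, while Erysiphe polygoni and Uromyces phaseoli spores were brushed on from infected leaves. After 48 h at 24° C., percentage germination was converted to a rating.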

Uromyces phaseoli = conditions: UP, 48 hours
Summary of the method: as §1

Botrytis cinerea = conditions: BC, 48 hours
Summary of the method: as §1

| Structure (SMILES) | Spore Germination Rating (Alternaria solani; 1.0 ppm) | Spore Germination Rating (Alternaria solani; 2.5 ppm) | Spore Germination Rating (Alternaria solani; 10 ppm) | Spore Germination Rating (Alternaria solani; 40 ppm) | Spore Germination Rating (Uromyces phaseoli; 1.0 ppm) | Spore Germination Rating (Uromyces phaseoli; 2.5 ppm) | Spore Germination Rating (Uromyces phaseoli; 10 ppm) | Spore Germination Rating (Uromyces phaseoli; 40 ppm) | Spore Germination Rating (Botrytis cinerea; 1.0 ppm) | Spore Germination Rating (Botrytis cinerea; 2.5 ppm) | Spore Germination Rating (Botrytis cinerea; 10 ppm) | Spore Germination Rating (Botrytis cinerea; 40 ppm) |
| --- | --- | --- | --- | --- | --- | --- | --- | --- | --- | --- | --- | --- |
| COc1ccc(Cl)c(Oc2nsnc(Cl)c2=O)c1 [Compound 51, 3-chloro-5-[(2-chloro-5-methoxy)phenoxy]-4H--1,2,6-thiadiazin-4-one] | 4 (80-100) | 4 (80-100) | 1 (10-40) | 0 (0-10) | 0 (0-10) | 0 (0-10) | 0 (0-10) | 0 (0-10) | 4 (80-100) | 3 (60-80) | 0 (0-10) | 0 (0-10) |
| COc1cc(Cl)cc(Oc2nsnc(Cl)c2=O)c1 [Compound 52, 3-chloro-5-[(3-chloro-5-methoxy)phenoxy]-4H--1,2,6-thiadiazin-4-one] | 4 (80-100) | 3 (60-80) | 0 (0-10) | 0 (0-10) | 2 (40-60) | 0 (0-10) | 0 (0-10) | 0 (0-10) | 4 (80-100) | 3 (60-80) | 0 (0-10) | 0 (0-10) |
| O=c1c(Cl)nsnc1Oc1ccc([N+](=O)[O-])cc1Cl [Compound 53, 3-chloro-5-(2-chloro-4-nitrophenoxy)-4H--1,2,6-thiadiazin-4-one] | 2 (40-60) | 0 (0-10) | 0 (0-10) | 0 (0-10) | 1 (10-40) | 0 (0-10) | 0 (0-10) | 0 (0-10) | 3 (60-80) | 0 (0-10) | 0 (0-10) | 0 (0-10) |
| Cc1cc(Oc2nsnc(Cl)c2=O)ccc1Cl [Compound 54, 3-chloro-5-(4-chloro-3-methylphenoxy)-4H--1,2,6-thiadiazin-4-one] | 4 (80-100) | 4 (80-100) | 4 (80-100) | 4 (80-100) | 0 (0-10) | 0 (0-10) | 0 (0-10) | 0 (0-10) | 4 (80-100) | 4 (80-100) | 2 (40-60) | 1 (10-40) |
| Cc1cc(Cl)ccc1Oc1nsnc(Cl)c1=O [Compound 55, 3-chloro-5-(4-chloro-2-methylphenoxy)-4H--1,2,6-thiadiazin-4-one] | 4 (80-100) | 2 (40-60) | 1 (10-40) | 0 (0-10) | 0 (0-10) | 0 (0-10) | 0 (0-10) | 0 (0-10) | 4 (80-100) | 3 (60-80) | 1 (10-40) | 1 (10-40) |
